Four compounds from ChEMBL document CHEMBL4011644, “3-Hydroxy-N'-arylidenepropanehydrazonamides with Halo-Substituted Phenanthrene Scaffolds Cure P. berghei Infected Mice When Administered Perorally” (J Med Chem, 2017) can be followed below.

Series [1] relates to Plasmodium berghei. Nature of the series: Antiplasmodial activity against Plasmodium berghei infected in NMRI mouse assessed as mean survival time at 10 mg/kg, po administered at 4, 24, 48, 72 hrs post infection measured on day 4 by Peter's test (reference value: 6 to 7 day). The format is functional.
The subject of series [2] is Plasmodium berghei. The experiment in a line: Antiplasmodial activity against Plasmodium berghei infected in NMRI mouse assessed as parasite free mouse at 3 mg/kg, po administered at 4, 24, 48, 72 hrs post infection measured on day 4 by Peter's test. The format is functional, organism-based.
In series [3] the test system is Plasmodium berghei. The experiment in a line: […] activity against GFP-fused Plasmodium berghei liver stage parasites infected in human HepG2-A16-CD81-EGFP cells after 48 hrs by luciferase reporter gene assay. The format is functional. (In general: A reporter such as luciferase makes a cellular process visible.)
Series [4] in a line: Selectivity index, ratio of IC50 for human HepG2 cells to IC50 for chloroquine-sensitive asexual blood stages of Plasmodium falciparum 3D7. The format is toxicity. To be noted: read-out: Ratio IC50.
Series [5] deals with Mus musculus. The experiment in a line: Toxicity in NMRI mouse infected with Plasmodium berghei assessed as overt toxicity at 50 mg/kg, ip administered at 4, 24, 48, 72 hrs post infection. The format is organism-based. To be noted: in vivo.
In series [6] the test system is Plasmodium berghei. The experiment in a line: Antiplasmodial activity against Plasmodium berghei infected in NMRI mouse assessed as mean survival time at 50 mg/kg, ip administered at 4, 24, 48, 72 hrs post infection by Peter's test (reference value: 6 to 7 day). The format is functional.
The subject of series [7] is Plasmodium berghei. Nature of the series: Antiplasmodial activity against Plasmodium berghei infected in NMRI mouse assessed as mean survival time at 30 mg/kg, po administered at 4, 24, 48, 72 hrs post infection by Peter's test (reference value: 6 to 7 day). The format is functional.
Series [8] relates to Plasmodium falciparum. Nature of the series: Antiplasmodial activity against multidrug-resistant asexual blood stages of Plasmodium falciparum Dd2 after 72 hrs by HRP2-based ELISA. The format is functional. To be noted: Dd2, 72 h.
The subject of series [9] is Plasmodium berghei. Nature of the series: Antiplasmodial activity against Plasmodium berghei infected in NMRI mouse assessed as mean survival time at 50 mg/kg, po administered at 4, 24, 48, 72 hrs post infection by Peter's test (reference value: 6 to 7 day). The format is functional.
For series [10], the system named is Plasmodium berghei. Nature of the series: Antiplasmodial activity against Plasmodium berghei infected in NMRI mouse assessed as reduction in parasitemia at 50 mg/kg, ip administered at 4, 24, 48, 72 hrs post infection measured on day 4 post infection by Peter's test relative to control. The format is functional. Also on record: scale not given: the % may be the effect or the level left.

In series [11] the test system is Plasmodium berghei. Nature of the series: Antiplasmodial activity against Plasmodium berghei infected in NMRI mouse assessed as parasite free mouse at 10 mg/kg, po administered at 4, 24, 48, 72 hrs post infection measured on day 4 by Peter's test. The format is functional, organism-based.
Series [12] concerns HepG2. The experiment in a line: Cytotoxicity against human HepG2 cells by CellTiterGlo assay. The format is cell-based.
In series [13] the test system is Plasmodium berghei. Nature of the series: Antiplasmodial activity against Plasmodium berghei infected in NMRI mouse assessed as reduction in parasitemia at 50 mg/kg, po administered at 4, 24, 48, 72 hrs post infection measured on day 4 post infection by Peter's test relative to control. The format is functional. Also on record: scale not given: the % may be the effect or the level left.

Series [14] relates to Plasmodium berghei. Nature of the series: Antiplasmodial activity against Plasmodium berghei infected in NMRI mouse assessed as reduction in parasitemia at 3 mg/kg, po administered at 4, 24, 48, 72 hrs post infection measured on day 4 by Peter's test relative to control. The format is functional. Also on record: scale not given: the % may be the effect or the level left.
Series [15] relates to Plasmodium berghei. Nature of the series: Antiplasmodial activity against Plasmodium berghei infected in NMRI mouse assessed as reduction in parasitemia at 10 mg/kg, po administered at 4, 24, 48, 72 hrs post infection measured on day 4 by Peter's test relative to control. Also on record: scale not given: the % may be the effect or the level left. The format is functional.

In series [16] the test system is Plasmodium falciparum. The experiment in a line: Gametocytocidal activity against transgenic GFP-fused Plasmodium falciparum NF54 early stage gametocytes after 72 hrs by Mitotracker Red CMH2XRos staining based confocal microscopic method. Particulars: NF54, 72 h. The format is functional.
The test system of series [17] is Plasmodium berghei. The experiment in a line: Antiplasmodial activity against Plasmodium berghei infected in NMRI mouse assessed as reduction in parasitemia at 30 mg/kg, po administered at 4, 24, 48, 72 hrs post infection measured on day 4 by Peter's test relative to control. The format is functional. Also on record: scale not given: the % may be the effect or the level left.

The subject of series [18] is Plasmodium falciparum. The experiment in a line: Gametocytocidal activity against transgenic GFP-fused Plasmodium falciparum NF54 […] stage gametocytes after 72 hrs by Mitotracker Red CMH2XRos staining based confocal microscopic method. The format is functional. Particulars: NF54, 72 h.
In series [19] the test system is Plasmodium berghei. The experiment in a line: Antiplasmodial activity against Plasmodium berghei infected in NMRI mouse assessed as parasite-free mouse at 30 mg/kg, po administered at 4, 24, 48, 72 hrs post infection measured on day 30 by Peter's test. The format is functional, organism-based.
Series [20] concerns Plasmodium falciparum. The experiment in a line: Effect on female gamete formation in transgenic GFP-fused Plasmodium falciparum NF54 mature stage-5 gametocytes at 1 uM after 72 hrs under reduced oxygen tension by Mitotracker Red CMH2XRos staining based confocal microscopic method. The format is functional.
In series [21] the test system is Plasmodium falciparum. Nature of the series: Effect on male gamete formation in transgenic GFP-fused Plasmodium falciparum NF54 mature stage-5 gametocytes at 1 uM after 72 hrs under reduced oxygen tension by Mitotracker Red CMH2XRos staining based confocal microscopic method. The format is functional.
The test system of series [22] is Plasmodium falciparum. Nature of the series: Antiplasmodial activity against chloroquine-sensitive asexual blood stages of Plasmodium falciparum 3D7 after 72 hrs by HRP2-based ELISA. To be noted: 3D7, 72 h. The format is functional.
Series [23] addresses Voltage-gated inwardly rectifying potassium channel KCNH2 (Homo sapiens, UniProt Q12809). Nature of the series: Inhibition of human ERG by fluorescence polarization assay.
Series [24] is described as follows: Chemical stability of compound in tween 20/ethanol/phosphate buffer at 1 mg/ml at pH 7.5 assessed as compound remaining after 6 hrs by HPLC analysis. Particulars: read-out: Stability. The format is physicochemical.
Series [25] is described as follows: Drug degradation in Tween 20/ethanol/phosphate buffer at 1 mg/ml at pH 7.5 after 24 hrs by HPLC analysis.
A short description of series [26]: Solubility of compound in phosphate buffer at pH 2.5 after 1 hr by HPLC analysis. The format is physicochemical. Particulars: pH 2.5, 1 h.
The nature of series [27]: Solubility of compound in phosphate buffer at pH 7.5 after 1 hr by HPLC analysis. The format is physicochemical. To be noted: pH 7.5, 1 h.
In series [28] the test system is Plasmodium berghei. Nature of the series: Antiplasmodial activity against Plasmodium berghei infected in NMRI mouse assessed as mean survival time at 3 mg/kg, po administered at 4, 24, 48, 72 hrs post infection measured on day 4 by Peter's test (reference value: 6 to 7 day). The format is functional.

The source made the active and inactive calls. No cut-off for these calls is given here.

Voltage-gated inwardly rectifying potassium channel KCNH2, sequence (Q12809 whole entry): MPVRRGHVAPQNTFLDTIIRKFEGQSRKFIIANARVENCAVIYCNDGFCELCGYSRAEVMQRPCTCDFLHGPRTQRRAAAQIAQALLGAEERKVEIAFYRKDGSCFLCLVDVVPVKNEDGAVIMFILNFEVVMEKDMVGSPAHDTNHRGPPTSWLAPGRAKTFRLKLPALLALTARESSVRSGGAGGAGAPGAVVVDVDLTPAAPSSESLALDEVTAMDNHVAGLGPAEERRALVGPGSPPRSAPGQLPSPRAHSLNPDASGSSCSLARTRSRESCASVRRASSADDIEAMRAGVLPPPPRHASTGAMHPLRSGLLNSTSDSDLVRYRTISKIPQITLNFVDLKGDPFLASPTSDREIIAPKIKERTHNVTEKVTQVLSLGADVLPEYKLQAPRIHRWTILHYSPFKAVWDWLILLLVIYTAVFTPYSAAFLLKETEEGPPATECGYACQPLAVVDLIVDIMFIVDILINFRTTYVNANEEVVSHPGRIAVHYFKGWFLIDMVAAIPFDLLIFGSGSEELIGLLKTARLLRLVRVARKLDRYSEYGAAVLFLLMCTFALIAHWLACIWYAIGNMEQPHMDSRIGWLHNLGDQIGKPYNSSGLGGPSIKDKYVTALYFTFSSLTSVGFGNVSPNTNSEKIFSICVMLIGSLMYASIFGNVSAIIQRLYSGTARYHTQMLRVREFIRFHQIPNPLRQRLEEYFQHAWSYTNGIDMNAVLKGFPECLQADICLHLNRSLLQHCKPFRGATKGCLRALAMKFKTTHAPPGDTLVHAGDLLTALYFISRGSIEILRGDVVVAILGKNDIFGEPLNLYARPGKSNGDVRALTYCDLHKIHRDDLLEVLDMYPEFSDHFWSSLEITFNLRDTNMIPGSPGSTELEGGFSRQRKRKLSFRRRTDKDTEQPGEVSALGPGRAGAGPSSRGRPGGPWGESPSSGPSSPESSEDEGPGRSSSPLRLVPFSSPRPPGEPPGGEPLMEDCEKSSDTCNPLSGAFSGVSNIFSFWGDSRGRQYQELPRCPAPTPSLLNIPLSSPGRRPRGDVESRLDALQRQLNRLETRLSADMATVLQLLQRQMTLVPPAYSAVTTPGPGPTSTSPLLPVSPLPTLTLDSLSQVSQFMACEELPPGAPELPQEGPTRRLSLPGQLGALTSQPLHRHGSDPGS

As for `N/C(CC(O)c1cc2c(Cl)cc(Cl)cc2c2cc(C(F)(F)F)ccc12)=N\N=C\c1ccc(F)cc1` (centres undefined), the MST turned out to be 5 days in series [1], 25.3 days in [6], 13.7 days in series [7] and 25.3 days in series [9]. Besides, the outcome in [2], in [11], in series [19], in [20] and in series [21] was inactive. For the same compound, the IC50 in series [3] is 13000 nM; in series [8], 2.5 nM; in [12], 43800 nM; in series [16] it was 31 nM; in [18], 36 nM; in [22], 1.8 nM. Also, the selectivity ratio in series [4] turned out to be 24300. The Activity entry in series [5] is reported as “Non-Toxic”; in series [10], 99.9%; in series [13], 99.9%; in series [14], <40%; in series [15], 80%; in series [17], 99.4%.

As to `CCN(CC)Cc1cc(/C=N/N=C(\N)CC(O)c2cc3c(F)cc(F)cc3c3cc(C(F)(F)F)ccc23)ccc1O` (centres undefined), the MST turned out to be 10 days in [1], 30 days in series [6], 28.3 days in series [7] and 29.7 days in series [9]. The outcome in series [2], in series [11], in series [19], in series [20] and in series [21] was inactive. Moreover, the 50% inhibitory concentration (IC50) came out at 5200 nM in [3]; 390 nM in series [23]; 6.1 nM in series [8]; 13400 nM in [12]; 218 nM in series [16]; 110 nM in [18]. The same compound gave an IC50 in series [22] of 3.9 nM. Also, in series [4], the selectivity ratio is 3440. For the same compound, the Activity entry is “Non-Toxic” in [5]; 99.8% in series [10]; 99.9% in series [13]; <40% in series [14]; 99.4% in series [15]; 99.9% in [17].

In turn, `CCCCN(CCCC)CC(O)c1cc(Cl)cc2c1-c1ccc(Cl)cc1/C2=C/c1ccc(Cl)cc1` (centres undefined) [LUMEFANTRINE] yielded an IC50 in series [23] of 377 nM.

On to `N/C(CC(O)c1cc2c(F)cc(F)cc2c2cc(C(F)(F)F)ccc12)=N\N=C\c1ccc(F)cc1` (centres undefined), for which the MST in series [1] turned out to be 24.7 days; in series [7], 25.7 days; in series [9], 22 days; in [28], 7 days. The result in [2], in series [19], in series [20] and in series [21] was inactive. Besides, the IC50 in series [3] was 6900 nM; in series [8], 2.9 nM; in series [12], 27700 nM; in [16] it was 200 nM; in series [18] it was 66 nM; in series [22], 2.3 nM. Besides, the remaining at 6 h, 1 mg/ml in series [24] is > 95%. In addition, the Activity result is recorded as “Non-Toxic” in series [5]; 99.9% in [13]; 78% in series [14]; 99.5% in series [15]; 99.4% in [17]. For the same compound, in [25], the Drug degradation amounted to 31%. For the same compound, the solubility entry in [26] and in [27] was “Insoluble” throughout.

A word on the IC50: it is the concentration needed to halve the response being measured.
